Results taken from publication PMC6451745, “Development and dosimetry of ^203Pb/^212Pb-labelled PSMA ligands: bringing “the lead” into PSMA-targeted alpha therapy?” (European Journal of Nuclear Medicine and Molecular Imaging, 2019).
Where “and” joins values, the source holds several entries; their conditions need not be identical. Identical values can stand only once.

Key:
C4-2 tumour-bearing mice [1] = assay: Planar scintigraphic imaging in tumour-bearing mice; assay type: in vivo; settings: ^203Pb-labelled, 1 h after injection, Fig. 3
Method: (§1) The in vivo experiments were carried out in accordance with the laws on animal welfare of the Federal Republic of Germany. For imaging and biodistribution studies, male BALB/c nu/nu mice (20–25 g; Charles River) bearing C4-2 tumour xenografts were used. The mice were inoculated subcutaneously in the right trunk with 5 × 10^6 C4-2 cells in 50% Matrigel in Opti-MEM (1×). For small-animal imaging the mice were anaesthetized with 2% sevoflurane, and then 0.1 nmol (1.0 MBq) of the respective ^203Pb ligand was injected into a tail vein. Serial planar scans were performed using a Gamma Imager-sct (Biospace Lab, Paris, France) with a parallel collimator (35 mm/1.8 mm/0.2 mm) after 10 min, 1 h, 4 h and 24 h. Based on the imaging results, compound CA012 was chosen for biodistribution studies. Experiments were performed in triplicate. For biodistribution, 0.025 nmol (1 MBq) of labelled compound per mouse was administered by injection into a tail vein. After 10 min, 1 h, 4 h and 24 h the mice were killed, the organs were dissected and weighed, and activity was measured using a gamma counter (Packard Cobra Auto-gamma). The organ uptakes were calculated as the percentage of the injected dose per gram of tissue (%ID/g).

PSMA = molecular target: T1, PSMA (Homo sapiens, UniProt Q04609); assay: Competitive binding assay on C4-2 cells; settings: reference ^68Ga-labelled PSMA-HBED-CC dimer (PSMA-10), mean ± SD
T1 construct: host or cells: C4-2 cells (LNCaP subline)
Method: (§2) In vitro and in vivo experiments were performed using the PSMA-positive C4-2 cell line, a subline of the LNCaP (lymph node carcinoma of the prostate) cell line (CRL-3314; American Type Culture Collection). C4-2 cells were cultivated in RPMI-1640 (PAN Biotech) supplemented with 10% fetal calf serum and stable glutamine (PAN Biotech). Cells were grown at 37 °C and incubated in humidified air equilibrated with 5% CO2.
A MultiScreenHTS-DV filter plate was incubated at room temperature with 100 μl phosphate-buffered saline (PBS) containing 1% bovine serum albumin (BSA) per well for 30 min. After removal of the PBS/BSA solution, 1 × 10^5 C4-2 cells in Opti-MEM were added to each well. All nonlabelled compounds were dissolved in 300 μl Opti-MEM at the following concentrations: 0, 0.5, 1, 2.5, 5, 10, 25, 50, 100, 500, 1,000 and 5,000 nM. Subsequently, 3 μl of the radiolabelled compound was added, and 50 μl of this mixture was taken to obtain a solution containing 0.75 nM of the radiolabelled ligand. After 45 min incubation at 37 °C, the cells were washed twice with PBS, the radioactivity accumulated in the cells was collected, and the remaining radioactivity was measured in a gamma counter. The inhibitory potency was determined using ^68Ga-labelled PSMA-HBED-CC dimer (i.e. PSMA-10) as the reference. The 50% inhibitory concentration was calculated using a nonlinear regression algorithm (GraphPad Prism 5.01 software). The experiments were performed in quadruplicate.

C4-2 cells = assay: Determination of specific internalization ratio; assay type: cell-based
Method: as §2
For determination of the specific internalization ratio, 24-well plates were incubated for 20 min with 0.1% poly-L-lysine in PBS at room temperature and washed once with PBS. In the next step, 1 ml RPMI containing 1 × 10^5 C4-2 cells was added to each well and incubated overnight. The conditions during the experiment for each compound were: incubation at 37 °C or 4 °C with or without receptor blocking via 2-(phosphonomethyl)pentanedioic acid (2-PMPA; Axxora) at a final concentration of 500 μM. The cells were then incubated with 250 μl of a 30 nM solution of ^203Pb-labelled compound. The plates were incubated either for 45 min in a water bath at 37 °C or on ice at 4 °C. The cells were then washed three times with 1 ml ice-cold PBS and incubated with 0.5 ml glycine (50 mM in HCl, pH 2.8) for 5 min. After an additional washing step with 1 ml ice-cold PBS, the cells were lysed with 0.5 ml 0.3 M NaOH and collected, and the radioactivity was measured with a gamma counter for 1 min. The specific cellular uptake was determined as the percentage of initially added radioactivity bound per 10^6 cells (%IA/10^6 cells) by subtraction of the respective uptake under blocking conditions. All experiments were performed in triplicate.

[2] = test system: patients with castration-resistant metastasized prostate cancer; assay: ^203Pb-CA012 dosimetry from planar whole-body scans in patients (QDOSE/OLINDA); assay type: in vivo, human; settings: diagnostic ^203Pb, two patients, male adult phantom in OLINDA
Method: OLINDA calculations were performed for all nuclides individually.

C4-2 tumour-bearing mice [3] = assay: Biodistribution (organ distribution) in tumour-bearing mice; assay type: in vivo; settings: 0.025 nmol i.v., C4-2 tumour-bearing mice, n = 3
Method: as §1

T1 sequence (Q04609 whole entry): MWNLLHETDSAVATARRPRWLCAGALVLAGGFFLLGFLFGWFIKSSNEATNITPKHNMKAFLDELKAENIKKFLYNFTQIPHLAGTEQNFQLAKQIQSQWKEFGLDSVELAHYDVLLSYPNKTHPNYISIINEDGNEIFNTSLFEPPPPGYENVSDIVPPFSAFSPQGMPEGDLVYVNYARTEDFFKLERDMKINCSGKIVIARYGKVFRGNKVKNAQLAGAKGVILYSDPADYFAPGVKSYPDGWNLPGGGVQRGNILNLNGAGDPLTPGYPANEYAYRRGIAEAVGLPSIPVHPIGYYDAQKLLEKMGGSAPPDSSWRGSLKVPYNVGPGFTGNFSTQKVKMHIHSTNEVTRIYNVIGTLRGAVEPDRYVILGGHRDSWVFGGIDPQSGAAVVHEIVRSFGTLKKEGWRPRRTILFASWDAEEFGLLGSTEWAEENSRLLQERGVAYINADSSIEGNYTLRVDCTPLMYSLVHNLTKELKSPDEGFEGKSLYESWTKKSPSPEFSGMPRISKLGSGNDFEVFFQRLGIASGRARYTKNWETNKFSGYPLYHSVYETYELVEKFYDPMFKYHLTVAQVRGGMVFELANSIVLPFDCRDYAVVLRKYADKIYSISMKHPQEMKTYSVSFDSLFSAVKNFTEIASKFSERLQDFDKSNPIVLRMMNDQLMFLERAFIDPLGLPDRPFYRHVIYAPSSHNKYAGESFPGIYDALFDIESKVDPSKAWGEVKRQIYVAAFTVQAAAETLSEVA

NC(=O)CN1CCN(CC(N)=O)CCN(CC(N)=O)C(Cc2ccc(NC(=S)NC(Cc3ccc4ccccc4c3)C(=O)NCCCC[C@H](NC(=O)N[C@@H](CCC(=O)O)C(=O)O)C(=O)O)cc2)CN(CC(N)=O)CC1 (stereo partly drawn) [CA008]
tumour uptake in mice (planar scintigraphy) (C4-2 tumour-bearing mice [1]): low tumour uptake
Ki (PSMA): 28.8 ± 3.4 nM

NC(=O)CN1CCN(CC(N)=O)CCN(CC(=O)NCC2CCC(C(=O)NC(Cc3ccc4ccccc4c3)C(=O)NCCCC[C@H](NC(=O)N[C@@H](CCC(=O)O)C(=O)O)C(=O)O)CC2)CCN(CC(N)=O)CC1.[203Pb+2] (stereo partly drawn) [^203Pb-CA012]
specific ligand-induced internalization (C4-2 cells): ~16 %IA/10^6 cells
Specific lysate (specific internalization) (C4-2 cells; ^203Pb-labelled compound 30 nM, 45 min, 2-PMPA blocking subtracted, mean ± SD n = 3): 15.6 ± 2.1 %IA/10^6 cells
Effective dose [2]: 2.4 mSv/100 MBq
Effective dose equivalent [2]: 3.6 mSv/100 MBq
Equivalent dose, Adrenals [2]: 2.8 mSv/100 MBq
Equivalent dose, Brain [2]: 1.2 mSv/100 MBq
Equivalent dose, Breasts [2]: 1.1 mSv/100 MBq
Equivalent dose, Gallbladder [2]: 2.8 mSv/100 MBq
Equivalent dose, Heart [2]: 1.8 mSv/100 MBq
Equivalent dose, Kidneys [2]: 18.1 mSv/100 MBq
Equivalent dose, Liver [2]: 4.3 mSv/100 MBq
Equivalent dose, Lower large intestine [2]: 2.0 mSv/100 MBq
Equivalent dose, Lungs [2]: 1.6 mSv/100 MBq
Equivalent dose, Muscle [2]: 1.5 mSv/100 MBq
Equivalent dose, Osteogenic cells [2]: 3.7 mSv/100 MBq
Equivalent dose, Pancreas [2]: 2.8 mSv/100 MBq
Equivalent dose, Red marrow [2]: 1.8 mSv/100 MBq
Equivalent dose, Skin [2]: 1.0 mSv/100 MBq
Equivalent dose, Small intestine [2]: 2.1 mSv/100 MBq
Equivalent dose, Spleen [2]: 6.7 mSv/100 MBq
Equivalent dose, Stomach [2]: 2.0 mSv/100 MBq
Equivalent dose, Testes [2]: 1.4 mSv/100 MBq
Equivalent dose, Thymus [2]: 1.4 mSv/100 MBq
Equivalent dose, Thyroid [2]: 1.4 mSv/100 MBq
Equivalent dose, Total body [2]: 1.7 mSv/100 MBq
Equivalent dose, Upper large intestine [2]: 2.1 mSv/100 MBq
Equivalent dose, Urinary bladder [2]: 6.7 mSv/100 MBq
Organ distribution, Blood (C4-2 tumour-bearing mice [3]; 10 min): 5.37 ± 1.95 % ID/g
Organ distribution, Brain (C4-2 tumour-bearing mice [3]; 10 min): 0.14 ± 0.04 % ID/g
Organ distribution, Heart (C4-2 tumour-bearing mice [3]; 10 min): 1.78 ± 0.66 % ID/g
Organ distribution, Kidneys (C4-2 tumour-bearing mice [3]; 10 min): 26.97 ± 8.74 % ID/g
Organ distribution, Liver (C4-2 tumour-bearing mice [3]; 10 min): 1.25 ± 0.43 % ID/g
Organ distribution, Lung (C4-2 tumour-bearing mice [3]; 10 min): 4.31 ± 1.19 % ID/g
Organ distribution, Muscle (C4-2 tumour-bearing mice [3]; 10 min): 1.20 ± 0.43 % ID/g
Organ distribution, Small intestine (C4-2 tumour-bearing mice [3]; 10 min): 1.75 ± 0.48 % ID/g
Organ distribution, Spleen (C4-2 tumour-bearing mice [3]; 10 min): 1.97 ± 1.07 % ID/g
Organ distribution, Tumor (C4-2 tumour-bearing mice [3]; 10 min): 12.33 ± 1.92 % ID/g
Organ distribution, Blood (C4-2 tumour-bearing mice [3]; 1 h): 0.26 ± 0.10 % ID/g
Organ distribution, Brain (C4-2 tumour-bearing mice [3]; 1 h): 0.02 ± 0.00 % ID/g
Organ distribution, Heart (C4-2 tumour-bearing mice [3]; 1 h): 0.10 ± 0.03 % ID/g
Organ distribution, Kidneys (C4-2 tumour-bearing mice [3]; 1 h): 5.08 ± 2.45 % ID/g
Organ distribution, Liver (C4-2 tumour-bearing mice [3]; 1 h): 0.20 ± 0.10 % ID/g
Organ distribution, Lung (C4-2 tumour-bearing mice [3]; 1 h): 0.33 ± 0.13 % ID/g
Organ distribution, Muscle (C4-2 tumour-bearing mice [3]; 1 h): 0.05 ± 0.03 % ID/g
Organ distribution, Small intestine (C4-2 tumour-bearing mice [3]; 1 h): 0.10 ± 0.04 % ID/g
Organ distribution, Spleen (C4-2 tumour-bearing mice [3]; 1 h): 0.16 ± 0.08 % ID/g
Organ distribution, Tumor (C4-2 tumour-bearing mice [3]; 1 h, listed as 203Pb-PSMA-CA012): 8.4 ± 3.7 % ID/g and 8.37 ± 3.67 % ID/g
Organ distribution, Blood (C4-2 tumour-bearing mice [3]; 4 h): 0.05 ± 0.01 % ID/g
Organ distribution, Brain (C4-2 tumour-bearing mice [3]; 4 h): 0.02 ± 0.01 % ID/g
Organ distribution, Heart (C4-2 tumour-bearing mice [3]; 4 h): 0.04 ± 0.02 % ID/g
Organ distribution, Kidneys (C4-2 tumour-bearing mice [3]; 4 h): 1.61 ± 0.28 % ID/g
Organ distribution, Liver (C4-2 tumour-bearing mice [3]; 4 h): 0.09 ± 0.01 % ID/g
Organ distribution, Lung (C4-2 tumour-bearing mice [3]; 4 h): 0.10 ±0.03 % ID/g
Organ distribution, Muscle (C4-2 tumour-bearing mice [3]; 4 h): 0.06 ± 0.03 % ID/g
Organ distribution, Small intestine (C4-2 tumour-bearing mice [3]; 4 h): 0.07 ± 0.05 % ID/g
Organ distribution, Spleen (C4-2 tumour-bearing mice [3]; 4 h): 0.07 ± 0.01 % ID/g
Organ distribution, Tumor (C4-2 tumour-bearing mice [3]; 4 h): 7.81 ±0.86 % ID/g
Organ distribution, Blood (C4-2 tumour-bearing mice [3]; 24 h): 0.03 ± 0.00 % ID/g
Organ distribution, Brain (C4-2 tumour-bearing mice [3]; 24 h): 0.01 ± 0.00 % ID/g
Organ distribution, Heart (C4-2 tumour-bearing mice [3]; 24 h): 0.02 ± 0.00 % ID/g
Organ distribution, Kidneys (C4-2 tumour-bearing mice [3]; 24 h): 0.89 ± 0.14 % ID/g
Organ distribution, Liver (C4-2 tumour-bearing mice [3]; 24 h): 0.10 ± 0.02 % ID/g
Organ distribution, Lung (C4-2 tumour-bearing mice [3]; 24 h): 0.05 ± 0.01 % ID/g
Organ distribution, Muscle (C4-2 tumour-bearing mice [3]; 24 h): 0.02 ± 0.00 % ID/g
Organ distribution, Small intestine (C4-2 tumour-bearing mice [3]; 24 h): 0.02 ± 0.00 % ID/g
Organ distribution, Spleen (C4-2 tumour-bearing mice [3]; 24 h): 0.07 ± 0.02 % ID/g
Organ distribution, Tumor (C4-2 tumour-bearing mice [3]; 24 h): 3.30 ± 1.60 % ID/g
